Measured values from paper PMC4138103 (PLoS ONE, 2014).

Test system: Sprague-Dawley rats
Assay: Organ weights
Type: in vivo, Rattus norvegicus
Experimental: At the end of the treatment period (males on study day 28–31, females on study day 28–32) the rats were anesthetized with CO2/O2 (70/30%). Blood samples were drawn from the left ventricle using Venoject needles (Terumo) and Vacuette EDTA and serum blood collection tubes, and the rats were killed by exsanguination. EDTA blood was used for hematology investigations (see below). Serum was separated, divided into aliquots, frozen in liquid nitrogen and stored at −70°C for further analysis (see below). A complete necropsy (macroscopic observations, tissue sampling for molecular biology, biochemistry, histopathology, analytical chemistry and organ weights) was performed on each rat. The weights of the following organs were recorded: adrenals, brain, epididymides, heart, kidneys, liver, lungs, ovaries, pituitary, prostate (ventral), seminal vesicles, spleen, testes, thymus, thyroids (with parathyroids) and uterus. For molecular biology and biochemical analyses samples from brain, liver, kidney, bones, and several other tissues were snap frozen in liquid nitrogen and stored at −80°C for further analysis. […] Tissue samples for histopathology were preserved in 10% neutral buffered formalin except testis and epididymis, which were fixed in Bouin's solution for 24 h after which they were transferred into 70% ethanol.
Data were also analyzed using the BMD method, which is based on dose-response modeling of the full data set using a nested family of exponential and Hill models. The analyses were done on data of males and females combined, using sex as a covariate. […] In that case, different Critical Effect Doses (CEDs) and CEDs at the lowest bound of the confidence interval (CED-L) were generated for each sex. If no difference between sexes is detected, a CED and CED-Ls for the combined data is generated. However, this was also done if the curve fits are close, and separate analyses for males and females were then performed manually. CEDs and CED-Ls were calculated at the predefined Critical Effect Size (CES) of 5% (EFSA standard) or 10%.

[1] = females, total dose 1000 mg/kg bw, group mean
[2] = females, total dose 1700 mg/kg bw, group mean
[3] = males, CES 5%, total dose based
[4] = males, CES 10%, total dose based
[5] = males, adipose tissue concentration based
[6] = males, total dose 3 mg/kg bw, group mean
[7] = males, total dose 10 mg/kg bw, group mean
[8] = males, total dose 30 mg/kg bw, group mean
[9] = males, total dose 100 mg/kg bw, group mean
[10] = males, total dose 300 mg/kg bw, group mean
[11] = males, total dose 1000 mg/kg bw, group mean
[12] = males, total dose 1700 mg/kg bw, group mean

**Q.** Which results are given for Clc1cc(Cl)c(-c2cc(Cl)c(Cl)c(Cl)c2Cl)cc1Cl [PCB 180, 2,2′,3′,4,4′,5,5′-heptachlorobiphenyl]?
**A.** Organ weight, Spleen [1]: 0.700 g; Organ weight, Thymus [1]: 0.528 g; Organ weight, Thyroid gland [1]: 0.0158 g; Organ weight, Uterus [1]: 0.374 g; Organ weight, Adrenals [2]: 0.0657 g; Organ weight, Brain [2]: 1.60 g; Organ weight, Heart [2]: 0.900 g; Organ weight, Kidneys [2]: 1.40 g; Organ weight, Ovaries [2]: 0.102 g; Organ weight, Pituitary [2]: 0.0108 g; Organ weight, Spleen [2]: 0.664 g; Organ weight, Thymus [2]: 0.560 g; Organ weight, Thyroid gland [2]: 0.0160 g; Organ weight, Uterus [2]: 0.366 g; Dose response, Thyroid gland weight (males, total dose 0-1700 mg/kg bw): D, T; Liver weight, CED [3]: 11.6 mg/kg bw; Liver weight, CED-L [3]: 5.48 mg/kg bw; Thyroid gland weight, CED [3]: 239 mg/kg bw; Thyroid gland weight, CED-L [3]: 168 mg/kg bw; Liver weight, CED [4]: 24.2 mg/kg bw; Liver weight, CED-L [4]: 11.4 mg/kg bw; Thyroid gland weight, CED [4]: 467 mg/kg bw; Thyroid gland weight, CED-L [4]: 328 mg/kg bw; Liver weight, CED [5]: 42.3 µg/g lipid; Thyroid weight, CED [5]: 1030 µg/g lipid; Organ weight, Adrenals [6]: 0.0472 g; Organ weight, Brain [6]: 1.65 g; Organ weight, Epididymides [6]: 0.972 g; Organ weight, Heart [6]: 1.27 g; Organ weight, Kidneys [6]: 2.00 g; Organ weight, Pituitary [6]: 0.0091 g; Organ weight, Seminal vesicles [6]: 0.915 g; Organ weight, Spleen [6]: 0.828 g; Organ weight, Testis L [6]: 1.82 g; Organ weight, Testis R [6]: 1.82 g; Organ weight, Thymus [6]: 0.632 g; Organ weight, Thyroid gland [6]: 0.0210 g; Organ weight, Ventral prostate [6]: 0.492 g; Organ weight, Adrenals [7]: 0.0514 g; Organ weight, Brain [7]: 1.75 g; Organ weight, Epididymides [7]: 0.952 g; Organ weight, Heart [7]: 1.17 g; Organ weight, Kidneys [7]: 2.15 g; Organ weight, Pituitary [7]: 0.0088 g; Organ weight, Seminal vesicles [7]: 0.983 g; Organ weight, Spleen [7]: 0.828 g; Organ weight, Testis L [7]: 1.92 g; Organ weight, Testis R [7]: 1.88 g; Organ weight, Thymus [7]: 0.594 g; Organ weight, Thyroid gland [7]: 0.0221 g; Organ weight, Ventral prostate [7]: 0.451 g; Organ weight, Adrenals [8]: 0.0665 g; Organ weight, Brain [8]: 1.72 g; Organ weight, Epididymides [8]: 1.030 g; Organ weight, Heart [8]: 1.31 g; Organ weight, Kidneys [8]: 2.09 g; Organ weight, Pituitary [8]: 0.0098 g; Organ weight, Seminal vesicles [8]: 0.966 g; Organ weight, Spleen [8]: 0.876 g; Organ weight, Testis L [8]: 1.79 g; Organ weight, Testis R [8]: 1.78 g; Organ weight, Thymus [8]: 0.764 g; Organ weight, Thyroid gland [8]: 0.0227 g; Organ weight, Ventral prostate [8]: 0.518 g; Organ weight, Adrenals [9]: 0.0513 g; Organ weight, Brain [9]: 1.70 g; Organ weight, Epididymides [9]: 0.992 g; Organ weight, Heart [9]: 1.20 g; Organ weight, Kidneys [9]: 2.13 g; Organ weight, Pituitary [9]: 0.0107 g; Organ weight, Seminal vesicles [9]: 1.015 g; Organ weight, Spleen [9]: 0.826 g; Organ weight, Testis L [9]: 1.88 g; Organ weight, Testis R [9]: 1.88 g; Organ weight, Thymus [9]: 0.770 g; Organ weight, Thyroid gland [9]: 0.0236 g; Organ weight, Ventral prostate [9]: 0.521 g; Organ weight, Adrenals [10]: 0.0407 g; Organ weight, Brain [10]: 1.74 g; Organ weight, Epididymides [10]: 0.966 g; Organ weight, Heart [10]: 1.23 g; Organ weight, Kidneys [10]: 2.11 g; Organ weight, Pituitary [10]: 0.0098 g; Organ weight, Seminal vesicles [10]: 1.038 g; Organ weight, Spleen [10]: 0.858 g; Organ weight, Testis L [10]: 1.87 g; Organ weight, Testis R [10]: 1.85 g; Organ weight, Thymus [10]: 0.690 g; Organ weight, Thyroid gland [10]: 0.0266 g; Organ weight, Ventral prostate [10]: 0.536 g; Organ weight, Adrenals [11]: 0.0450 g; Organ weight, Brain [11]: 1.71 g; Organ weight, Epididymides [11]: 0.974 g; Organ weight, Heart [11]: 1.12 g; Organ weight, Kidneys [11]: 2.18 g; Organ weight, Pituitary [11]: 0.0115 g; Organ weight, Seminal vesicles [11]: 1.210 g; Organ weight, Spleen [11]: 0.858 g; Organ weight, Testis L [11]: 1.89 g; Organ weight, Testis R [11]: 1.85 g; Organ weight, Thymus [11]: 0.686 g; Organ weight, Thyroid gland [11]: 0.0294 g; Organ weight, Ventral prostate [11]: 0.566 g; Organ weight, Adrenals [12]: 0.0463 g; Organ weight, Brain [12]: 1.68 g; Organ weight, Epididymides [12]: 0.952 g; Organ weight, Heart [12]: 1.16 g; Organ weight, Kidneys [12]: 2.03 g; Organ weight, Pituitary [12]: 0.0089 g; Organ weight, Seminal vesicles [12]: 0.947 g; Organ weight, Spleen [12]: 0.800 g; Organ weight, Testis L [12]: 1.84 g; Organ weight, Testis R [12]: 1.88 g; Organ weight, Thymus [12]: 0.772 g; Organ weight, Ventral prostate [12]: 0.461 g; Thymus weight (rat, in vivo): not decreased
